In paper PMC5267519, “Evaluation of a Novel Renewable Hepatic Cell Model for Prediction of Clinical CYP3A4 Induction Using a Correlation-Based Relative Induction Score Approach” (Drug Metabolism and Disposition, 2017):
“And” between values parts separate entries of the source, which are not always exact repeats. Equal entries are not always repeated. Where two headings read alike, the source gives them in different places.

Tests used:
human CAR [1] = target: T1, human CAR (Homo sapiens, UniProt Q14994); test: Ad-EYFP-hCAR nuclear translocation in HepatoCells; type: cell-based; details: 1 mM phenobarbital for 12 hours
T1 construct: expressed in transfected cells; host or cells: primary human hepatocytes (Corning Gentest inventory), adenoviral transduction
T1 sequence (Q14994 1-352): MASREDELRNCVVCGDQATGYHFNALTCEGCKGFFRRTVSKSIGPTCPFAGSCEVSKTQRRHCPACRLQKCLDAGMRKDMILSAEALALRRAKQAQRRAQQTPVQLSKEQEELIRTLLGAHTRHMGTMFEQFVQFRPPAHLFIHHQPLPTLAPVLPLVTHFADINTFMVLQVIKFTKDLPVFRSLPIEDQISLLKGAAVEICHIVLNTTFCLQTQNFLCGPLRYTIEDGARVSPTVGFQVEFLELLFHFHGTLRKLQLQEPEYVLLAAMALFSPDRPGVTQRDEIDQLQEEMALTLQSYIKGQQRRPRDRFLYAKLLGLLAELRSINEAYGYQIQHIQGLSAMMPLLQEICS
Protocol: Previous studies have used adenoviral-enhanced yellow fluorescent protein-tagged-human CAR (Ad-EYFP-hCAR) as a tool to visualize nuclear translocation of hCAR from cytoplasm in primary human hepatocytes upon exposure to phenobarbital ([Li et al., 2009]). […] The same Ad-EYFP-hCAR fusion protein model system was used to study CAR nuclear translocation in HepatoCells. A 3-day culture of HepatoCells was transduced with Ad-EYFP-hCAR for 24 hours. Infected HepatoCells were then treated with 1 mM phenobarbital for 12 hours.

CYP3A4 [2] = details: for RIS Based on Enzyme Activity: RIS = (Emax × Cmax,ub)/(EC50 + Cmax,ub)
CYP3A4 [3] = system: CYP3A4
Text: The resulting fitting equation was used to calculate predicted in vivo AUC change for each compound. […] Prediction accuracy using HepatoCells was also compared with prediction accuracy using primary human hepatocytes.

CYP3A4 mRNA [4] = details: human
Protocol: (§1) Cryopreserved HepatoCells were thawed quickly in a 37°C water bath and transferred to Corning Culture Medium for HepatoCells supplemented with 10% fetal bovine serum and Pen/Strep (plating medium). After the cryo-freezing media was removed by centrifugation at 150g for 10 minutes, the cell pellet was resuspended in plating media and cell count was performed with trypan blue. Cells were then seeded in a Corning BioCoat Collagen I–coated plate (500,000 cells/well in 24-well plate or 80,000 cells/well in 96-well plate), and plates were incubated in a 37°C incubator with 5% CO2. […] Cells were then returned to the incubator for overnight culture.
(§2) Stock solutions of test compounds were prepared by dissolving each compound in DMSO and serially diluting the solutions in DMSO. Final working solutions were freshly prepared daily by diluting the 1000× stock solutions in culture medium. Three lots of HepatoCells culture were treated with eight concentrations of test compounds. Both enzymatic activity (testosterone 6β hydroxylase activity) and mRNA expression were measured as endpoints using LC-MS/MS and real-time reverse-transcription polymerase chain reaction, respectively.
(§3) Only curve fitting with correlation coefficient (R^2) > 0.85 is accepted. At high concentrations for some compounds, if toxicity or insolubility becomes obvious, such data are excluded from curve fitting.

CYP3A4 mRNA [5] = test: in vitro; details: human
Protocol: as §1, §2, §3

CYP3A4 [6] = details: cited from earlier work
CYP2B6 [7] = test: CYP2B6 induction response to prototypical inducer, enzyme activity, primary human hepatocytes; details: cryopreserved primary human hepatocytes, probe bupropion 250 µM
CYP2B6 [8] = test: CYP2B6 induction response to prototypical inducer, enzyme activity, HepatoCells; details: human, probe bupropion 250 µM
Protocol: as §1

human CAR [9] = target: T1, human CAR; test: Ad-EYFP-hCAR nuclear translocation in primary human hepatocytes; type: cell-based; details: phenobarbital treatment
[10] = parameters: method as in Zhang et al., 2014; details: from the literature; ref Zhang et al., 2014; cited from earlier work
CYP3A4 [11] = system: CYP3A4; parameters: method as in Luo et al. (2002); details: probenecid concentration up to 20 μM; ref Luo et al. (2002); cited from earlier work
CYP3A4 mRNA [12] = test: Concentration-dependent CYP3A4 mRNA induction in HepatoCells; details: for induction response: readout not specified; for Emax / EC50: CYP3A4 mRNA fold increase, NI = no induction observed at tested concentration; for Emax: 3 consecutive days treatment, quinidine: only observed maximum fold induction; for RIS Based on mRNA: RIS = (Emax × Cmax,ub)/(EC50 + Cmax,ub); for EC50: human, nominal concentrations
Protocol: as §1, §2, §3

PXR = system: PXR; parameters: method as in Luo et al. (2002); details: probenecid concentration up to 50 μM; ref Luo et al. (2002); cited from earlier work
[13] = Lot 2B HepatoCells, RIS calibration curve
[14] = Lot 3A HepatoCells, RIS calibration curve
[15] = Lot 3B HepatoCells, RIS calibration curve

## CCC1(c2ccccc2)C(=O)NC(=O)NC1=O [Phenobarbital]
Human CAR [1]
  EYFP-hCAR localisation after treatment: relocates to the cell nuclei
CYP3A4 [2]; human
  RIS Based on Enzyme Activity, Mean: 3.7
CYP3A4 [3]
  Predicted % AUC Change Based on Activity: 96% and 98%
  Predicted % AUC Change Based on mRNA: 98% and 95%
  Predicted AUC change using HepatoCells (range of lots): 95–98%
CYP3A4 mRNA [4]
  RIS Based on mRNA, Mean: 4.3
CYP3A4 mRNA [5]
  EC50: 775 µM
CYP3A4 [6]; human, in vivo
  Observed % AUC Change: 61%
CYP2B6 [7]
  fold induction at 72 h, 1 mM: 7.8
CYP2B6 [8]
  fold induction at 72 h, 1 mM: 5
Human CAR [9]
  EYFP-hCAR localisation after treatment: relocates to the cell nuclei

## CCCN(CCC)S(=O)(=O)c1ccc(C(=O)O)cc1 [Probenecid]
CYP3A4 [2]; HepatoCells
  Emax, enzyme activity (all lots): 5.9- to 11.9 fold
CYP3A4 [2]; Lot 2B
  RIS Based on Enzyme Activity: 1.5
CYP3A4 [2]; Lot 3A
  RIS Based on Enzyme Activity: 1.0
CYP3A4 [2]; Lot 3B
  RIS Based on Enzyme Activity: 0.8
CYP3A4 [2]; mean of lots 2B, 3A, 3B
  RIS Based on Enzyme Activity, Mean: 1.1
[10]
  unbound Cmax: 28 µM
CYP3A4 [3]; [13]
  Predicted % AUC Change Based on Activity: 96%
  Predicted % AUC Change Based on mRNA: 98%
CYP3A4 [3]; [14]
  Predicted % AUC Change Based on Activity: 94%
  Predicted % AUC Change Based on mRNA: 98%
CYP3A4 [3]; [15]
  Predicted % AUC Change Based on Activity: 83%
  Predicted % AUC Change Based on mRNA: 95%
CYP3A4 [11]
  induction of CYP3A4 transcript or enzyme activity: no activation of PXR or induction of CYP3A4 transcript or enzyme activity
CYP3A4 mRNA [12]; HepatoCells
  Emax, mRNA expression (all lots): more than 20 fold
CYP3A4 mRNA [12]; HepatoCells, probenecid at 0.1–11 μM, significant = >twofold
  induction response: did not exhibit significant induction response
CYP3A4 mRNA [12]; HepatoCells, probenecid concentration higher than 33 μM
  induction response: strong induction
CYP3A4 mRNA [12]; Lot 2B HepatoCells
  Emax: 25 Fold
CYP3A4 mRNA [12]; Lot 2B
  RIS Based on mRNA: 2.8
CYP3A4 mRNA [12]; Lot 3A HepatoCells
  Emax: 26 Fold
CYP3A4 mRNA [12]; Lot 3A
  RIS Based on mRNA: 3.2
CYP3A4 mRNA [12]; Lot 3B HepatoCells
  Emax: 22 Fold
CYP3A4 mRNA [12]; Lot 3B
  RIS Based on mRNA: 2.4
CYP3A4 mRNA [12]; EC50, Lot 2B HepatoCells
  EC50: 187 µM
CYP3A4 mRNA [12]; EC50, Lot 3A HepatoCells
  EC50: 176 µM
CYP3A4 mRNA [12]; EC50, Lot 3B HepatoCells
  EC50: 195 µM
CYP3A4 mRNA [12]; mean of lots 2B, 3A, 3B
  RIS Based on mRNA, Mean: 2.8
PXR
  activation of PXR: no activation of PXR
CYP3A4 [6]; clinical DDI, decrease in AUC of victim drug (midazolam or nonmidazolam), ref Zhang et al., 2014
  Observed % AUC Change: 20%
